US20110059114A1, “Compositions and Methods for the Treatment of Radioresistant Glioma Stem Cells” (DUKE UNIVERSITY, priority 2009, published 2011)

Columns and labels:
Mcl-1 = assay: Immunoblotting of Mcl-1; type: cell-based, human; conditions: 2 μM DAPT, T4302 CD133+ cells
Procedure: FIG. 5 is a set of immunoblots and a graph illustrating that the Notch pathway regulates radioresistance of glioma stem cells via the Akt pathway and Mcl-1. T4302 CD 133+ cells were infected with control lentivirus or lentivirus directing expression of NICD2. Cells were pre-treated with or without 2 μM DPAT for 4 hours and exposed to 3-Gy radiation. Irradiated cells were collected at 24 or 48 hours after radiation, and sham-irradiated cells were collected at 48 hours after radiation. (A, C, D) Protein levels of phospho-Akt (S473), total Akt, PTEN, Bcl-2, Bcl-xL, Mcl-1, phospho-p53 (S15), total p53 and PUMA were assessed by immunoblotting. Actin was blotted as the loading control. (B) Control cells or NICD2-expressing cells were pre-treated with 10 μM PI3K inhibitor, LY294002, or 50 μM Akt inhibitor III (SH-6), for 4 hours prior to radiation exposure. Relative caspase 3/7 activities were determined at 48 hours after radiation exposure. #: p<0.001, by one-way ANOVA.
Antibodies, DNA constructs, lentiviruses and other reagents. The antibodies purchased from Cell Signaling Technology (Danvers, M A) include phosphor-S296-Chk1 (2349), total Chk1 (2345), phosphor-T68-Chk2 (2661), total Chk2 (2662), phospho-5473 Akt (#9271), total Akt (#9272), PTEN (#9556), phospho-S15-p53 (#9286), Bcl-2 (#2870), Bcl-xL (#2764), Mcl-1 (#4572), Puma (#4976). […]

T4302 CD133+ cells = assay: Annexin V staining, flow cytometry; type: cell-based, human
Procedure: FIG. 2 is a series of graphs illustrating that γ-secretase inhibitors enhance radiation-induced cell death in glioma stem cells. (A) T4302 CD 133+ cells were pre-treated with DAPT or L685,458 for 4 hours and irradiated at 3 Gy. Percentage of dead cells was determined by trypan blue exclusion assay at 48 hours after radiation exposure. (B) T4302 CD 133+ cells were treated with GSIs ±radiation as indicated. Cells were then plated at 3000 cells per well in 96-well plates. Relative caspase 3/7 activities were determined by normalizing caspase activities to the corresponding cell titers. (C) T4302 CD 133+ cells were treated as described in FIG. 2A. 24 or 48 hours after radiation exposure, cells were labeled with FITC-conjugated Annexin V staining kit (BD Sciences) according to manufacturer's instructions and analyzed by flow cytometry. (D) T4302 CD 133+ cells were pre-treated with 2 μM DAPT for 4 hours, and were left unirradiated or irradiated at 1, 2 or 3 Gy. Relative caspase 3/7 activities were determined at 72 hours after radiation. (E) T4302 CD133+ cells were pre-treated with DAPT at indicated concentrations for 4 hours and irradiated at 3 Gy. Relative caspase activities were determined at 48 or 72 hours after radiation. *: p<0.01 by Student's t-test; #: p<0.01 by one-way ANOVA.

CC(NC(=O)Cc1cc(F)cc(F)c1)C(=O)NC(C(=O)OC(C)(C)C)c1ccccc1 [DAPT, N-[N-(3,5-Difluorophenacetyl-L-alanyl)]-S-phenylglycine t-Butyl Ester]
levels of Mcl-1 (Mcl-1): decreased | levels of Mcl-1 proteins of a smaller size (Mcl-1): increased | Annexin V-positive labeled cells (T4302 CD133+ cells; 24 hours following 3 Gy radiation): not obvious | Annexin V-positive labeled cells (T4302 CD133+ cells; 48 hours following 3 Gy radiation): significantly increased | percentage of Annexin V-positive cells (T4302 CD133+ cells; NICD2 expression): failed to increase
